From PubChem BioAssay (NCI)
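Each compound was tested at five concentrations against cells in 96-well plates for 48 hours. GI50 = concentration required for 50% inhibition of growth. TGI: concentration producing complete growth inhibition.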

Key:
Experiment in all cases: DTP human tumour cell line panel, 48 h
[1] = test system: 786-0 renal
[2] = test system: A498 renal
[3] = test system: A549 NSCLC
[4] = test system: ACHN renal
[5] = test system: BT-549 breast
[6] = test system: CAKI-1 renal
[7] = test system: CCRF-CEM leukemia
[8] = test system: COLO 205 colon
[9] = test system: DU-145 prostate
[10] = test system: EKVX NSCLC
[11] = test system: HCC-2998 colon
[12] = test system: HCT-116 colon
[13] = test system: HCT-15 colon
[14] = test system: HL-60(TB) leukemia
[15] = test system: HOP-62 NSCLC
[16] = test system: HOP-92 NSCLC
[17] = test system: HS 578T breast
[18] = test system: HT29 colon
[19] = test system: IGROV1 ovarian
[20] = test system: K-562 leukemia
[21] = test system: KM12 colon
[22] = test system: LOX IMVI melanoma
[23] = test system: M14 melanoma
[24] = test system: MALME-3M melanoma
[25] = test system: MCF7 breast
[26] = test system: MDA-MB-231 breast
[27] = test system: MDA-MB-435
[28] = test system: MOLT-4 leukemia
[29] = test system: NCI-H226 lung
[30] = test system: NCI-H23 lung
[31] = test system: NCI-H460 lung
[32] = test system: NCI-H522 lung
[33] = test system: NCI/ADR-RES ovarian
[34] = test system: OVCAR-3 ovarian
[35] = test system: OVCAR-4 ovarian
[36] = test system: OVCAR-5 ovarian
[37] = test system: OVCAR-8 ovarian
[38] = test system: PC-3 prostate
[39] = test system: RPMI-8226 leukemia
[40] = test system: RXF 393 renal
[41] = test system: SF-268 CNS
[42] = test system: SF-295 CNS
[43] = test system: SF-539 CNS
[44] = test system: SK-MEL-2 melanoma
[45] = test system: SK-MEL-28 melanoma
[46] = test system: SK-MEL-5 melanoma
[47] = test system: SK-OV-3 ovarian
[48] = test system: SN12C renal
[49] = test system: SNB-19 CNS
[50] = test system: SNB-75 CNS
[51] = test system: SR leukemia
[52] = test system: SW-620 colon
[53] = test system: T-47D breast
[54] = test system: TK-10 renal
[55] = test system: U251 CNS
[56] = test system: UACC-257 melanoma
[57] = test system: UACC-62 melanoma
[58] = test system: UO-31 renal

How did the GI50 [1] turn out when Nc1n[nH]c2cccc(C#Cc3cccc(NC(=O)c4ccc(N5CCOCC5)c(C(F)(F)F)c4)c3)c12 was run?
The GI50 was 2840 nM.

What about the TGI [1] of the same molecule?
Its TGI is 7840 nM.

And the GI50 [2]?
The GI50 was 384 nM.

And the TGI [2]?
The TGI was 2090 nM.

What about the GI50 [3] of the same molecule?
The GI50 was 1800 nM.

What about the TGI [3] of the same molecule?
Its TGI is 6050 nM.

What about the GI50 [4] of the same molecule?
Its GI50 is 725 nM.

What about the TGI [4] of the same molecule?
Its TGI is 4780 nM.

And the GI50 [5]?
Its GI50 is 2080 nM.

And the TGI [5]?
The TGI was 6800 nM.

And the GI50 [6]?
The GI50 was 1130 nM.

And the TGI [6]?
The TGI was 2910 nM.

What about the GI50 [7] of the same molecule?
The GI50 was 1360 nM.

And the TGI [7]?
Its TGI is 6580 nM.

What about the GI50 [8] of the same molecule?
Its GI50 is 525 nM.

What about the TGI [8] of the same molecule?
The TGI was 2330 nM.

And the GI50 [9]?
Its GI50 is 1810 nM.

What about the TGI [9] of the same molecule?
Its TGI is 4370 nM.

What about the GI50 [10] of the same molecule?
The GI50 was 1610 nM.

What about the TGI [10] of the same molecule?
Its TGI is 4170 nM.

And the GI50 [11]?
Its GI50 is 1320 nM.

And the TGI [11]?
The TGI was 3150 nM.

What about the GI50 [12] of the same molecule?
The GI50 was 653 nM.

What about the TGI [12] of the same molecule?
Its TGI is 2330 nM.

And the GI50 [13]?
The GI50 was 1540 nM.

And the TGI [13]?
Its TGI is 6440 nM.

What about the GI50 [14] of the same molecule?
The GI50 was 1400 nM.

And the TGI [14]?
Its TGI is 10500 nM.

And the GI50 [15]?
The GI50 was 1490 nM.

And the TGI [15]?
The TGI was 4390 nM.

What about the GI50 [16] of the same molecule?
The GI50 was 768 nM.

What about the TGI [16] of the same molecule?
Its TGI is 3140 nM.

What about the GI50 [17] of the same molecule?
Its GI50 is 508 nM.

What about the TGI [17] of the same molecule?
Its TGI is 3770 nM.

And the GI50 [18]?
The GI50 was 632 nM.

And the TGI [18]?
Its TGI is 4550 nM.

What about the GI50 [19] of the same molecule?
Its GI50 is 682 nM.

And the TGI [19]?
Its TGI is 3540 nM.

What about the TGI [20] of the same molecule?
The TGI was 13500 nM.

What about the GI50 [21] of the same molecule?
Its GI50 is 1290 nM.

What about the TGI [21] of the same molecule?
Its TGI is 2910 nM.

What about the GI50 [22] of the same molecule?
The GI50 was 944 nM.

What about the TGI [22] of the same molecule?
Its TGI is 2160 nM.

What about the GI50 [23] of the same molecule?
The GI50 was 473 nM.

What about the TGI [23] of the same molecule?
The TGI was 2200 nM.

And the GI50 [24]?
Its GI50 is 540 nM.

What about the TGI [24] of the same molecule?
The TGI was 2120 nM.

And the GI50 [25]?
Its GI50 is 1800 nM.

What about the TGI [25] of the same molecule?
The TGI was 7860 nM.

What about the GI50 [26] of the same molecule?
The GI50 was 720 nM.

And the TGI [26]?
Its TGI is 2600 nM.

What about the GI50 [27] of the same molecule?
The GI50 was 1090 nM.

What about the TGI [27] of the same molecule?
The TGI was 3310 nM.

And the GI50 [28]?
The GI50 was 1310 nM.

And the TGI [28]?
The TGI was 5710 nM.

And the GI50 [29]?
Its GI50 is 68.7 nM.

And the TGI [29]?
The TGI was 8530 nM.

And the GI50 [30]?
Its GI50 is 1370 nM.

And the TGI [30]?
The TGI was 4600 nM.

What about the GI50 [31] of the same molecule?
The GI50 was 1460 nM.

And the TGI [31]?
The TGI was 3190 nM.

And the GI50 [32]?
Its GI50 is 1150 nM.

What about the TGI [32] of the same molecule?
The TGI was 3560 nM.

And the GI50 [33]?
Its GI50 is 2250 nM.

And the TGI [33]?
The TGI was 7650 nM.

What about the GI50 [34] of the same molecule?
The GI50 was 1490 nM.

And the TGI [34]?
Its TGI is 5060 nM.

And the GI50 [35]?
Its GI50 is 1060 nM.

And the TGI [35]?
The TGI was 2980 nM.

And the GI50 [36]?
Its GI50 is 599 nM.

What about the TGI [36] of the same molecule?
Its TGI is 5260 nM.

What about the GI50 [37] of the same molecule?
Its GI50 is 1920 nM.

What about the TGI [37] of the same molecule?
Its TGI is 6830 nM.

What about the GI50 [38] of the same molecule?
Its GI50 is 1930 nM.

And the TGI [38]?
The TGI was 6830 nM.

What about the GI50 [39] of the same molecule?
Its GI50 is 1980 nM.

And the TGI [39]?
Its TGI is 6500 nM.

And the GI50 [40]?
The GI50 was 1020 nM.

What about the TGI [40] of the same molecule?
The TGI was 2830 nM.

And the GI50 [41]?
The GI50 was 1300 nM.

And the TGI [41]?
Its TGI is 5350 nM.

What about the GI50 [42] of the same molecule?
The GI50 was 1370 nM.

What about the TGI [42] of the same molecule?
The TGI was 5200 nM.

What about the GI50 [43] of the same molecule?
The GI50 was 310 nM.

And the TGI [43]?
The TGI was 1540 nM.

And the GI50 [44]?
Its GI50 is 855 nM.

What about the TGI [44] of the same molecule?
Its TGI is 3250 nM.

And the GI50 [45]?
Its GI50 is 867 nM.

What about the TGI [45] of the same molecule?
The TGI was 2720 nM.

And the GI50 [46]?
The GI50 was 1560 nM.

And the TGI [46]?
Its TGI is 3000 nM.

What about the GI50 [47] of the same molecule?
The GI50 was 2090 nM.

What about the TGI [47] of the same molecule?
The TGI was 5250 nM.

What about the GI50 [48] of the same molecule?
Its GI50 is 1560 nM.

And the TGI [48]?
Its TGI is 5800 nM.

And the GI50 [49]?
The GI50 was 2750 nM.

And the TGI [49]?
Its TGI is 7390 nM.

What about the GI50 [50] of the same molecule?
Its GI50 is 1070 nM.

And the TGI [50]?
Its TGI is 2470 nM.

And the GI50 [51]?
Its GI50 is 2400 nM.

What about the TGI [51] of the same molecule?
Its TGI is over 100000 nM.

What about the GI50 [52] of the same molecule?
Its GI50 is 1130 nM.

What about the TGI [52] of the same molecule?
The TGI was 5950 nM.

What about the GI50 [53] of the same molecule?
The GI50 was 1060 nM.

And the TGI [53]?
Its TGI is 3680 nM.

And the GI50 [54]?
Its GI50 is 2050 nM.

What about the TGI [54] of the same molecule?
Its TGI is 4400 nM.

What about the GI50 [55] of the same molecule?
Its GI50 is 2060 nM.

And the TGI [55]?
Its TGI is 7410 nM.

What about the GI50 [56] of the same molecule?
The GI50 was 1770 nM.

And the TGI [56]?
The TGI was 4380 nM.

What about the GI50 [57] of the same molecule?
Its GI50 is 622 nM.

And the TGI [57]?
The TGI was 2550 nM.

And the GI50 [58]?
The GI50 was 567 nM.

What about the TGI [58] of the same molecule?
Its TGI is 2920 nM.
